Test results from patent US11061034B2, “Blood biomarker for use in evaluation of effect of drug therapy on kidney cancer” (PUBLIC UNIVERSITY CORPORATION YOKOHAMA CITY UNIVERSITY, priority 2015, dated 2021).

System: kidney cancer
Assay: Kidney cancer activity by FDG PET/CT during mTOR inhibitor therapy
Assay type: in vivo, human
Protocol: A change in blood PARK7 concentration was observed during treatment in four patients with kidney cancer who began to receive administration of mTOR inhibitor. The blood PARK7 concentration was measured as a concentration of plasma PARK7 with the commercially available ELISA kit in the same manner as in 1, described above, and the change in blood PARK7 level was evaluated by comparing values detected by a luminometer. The therapeutic effect of the mTOR inhibitor was clinically evaluated by FDG PET/CT. Kidney cancer progression was evaluated by FDG PET/CT, in parallel with the measurement of blood PARK7 concentration. FDG is an agent composed of glucose and a positron-emitting nuclide introduced thereto, and it has almost the same behavior in the body as glucose. […] The SUVmax values indicated below the respective images are semi-quantified values of FDG accumulation.

## CO[C@H]1C[C@@H]2CC[C@@H](C)[C@@](O)(O2)C(=O)C(=O)N2CCCC[C@H]2C(=O)O[C@H]([C@H](C)C[C@@H]2CC[C@@H](OC(=O)C(C)(CO)CO)[C@H](OC)C2)CC(=O)[C@H](C)/C=C(\C)[C@@H](O)[C@@H](OC)C(=O)[C@H](C)C[C@H](C)/C=C/C=C/C=C/1C [Temsirolimus]
Patient with kidney cancer, Case No. 4 (one case)
  accumulation of FDG (PET/CT): no change in accumulation of FDG
Patients with kidney cancer, Case Nos. 1 to 3 (three cases)
  accumulation of FDG (PET/CT): decreased accumulation of FDG
